pIC50: −log10 of the molar value.
These compounds were tested on peripheral blood mononuclear cells (PBMC) stimulated with allogeneic PBMC or EBV-transformed human B cells (RPMI1788) (assay: Mixed lymphocyte reaction (MLR) assay). Settings: Homo sapiens, RPMI-1788; MLR assay of example 319; read-out: MLR IC50.
Assay type: cell-based
Method in brief: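 Compounds, held as 10 mM DMSO stocks and diluted in culture medium, were added to PBMC stimulated by 30 Gy-irradiated allogeneic PBMC or RPMI1788 cells. Proliferation was read as [3H]-thymidine uptake (1 μCi, final 16 h) after 5 days at 37° C. Inhibition was derived from cpm.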
For Nc1nc(N2CCN(CC(=O)NCCc3ccccc3)CC2)c2nc(-c3ccc(F)cc3)ccc2n1 [Example 459, 2-amino-4-[4-[2-(phenyl)ethylcarbamylmethyl]-piperazin-1-yl]-6-(4-fluorophenyl)-pyrido[3,2-f]pyrimidine], the pIC50 was 6.30. CC(C)(C)OC(=O)N1CCC(Nc2nc(N)nc3ccc(-c4ccc(F)cc4)nc23)CC1 [Example 461, 2-amino-4-[1-(tert-butoxycarbonyl)piperid-4-ylamino]-6-(4-fluorophenyl)-pyrido[3,2-d]pyrimidine] gave a pIC50 of 5.40. COCC(=O)N1CCN(c2nc(N)nc3ccc(-c4ccc(F)cc4)nc23)CC1 [Example 462, 2-amino-4-[4-(methoxyacetyl)piperazin-1-yl]-6-(4-fluorophenyl)-pyrido[3,2-d]pyrimidine] showed a pIC50 of 6.40. CCN(CC)C(=O)N1CCN(c2nc(N)nc3ccc(-c4ccc(F)cc4)nc23)CC1 [Example 463, 2-amino-4-[4-(diethylcarbamoyl)piperazin-1-yl]-6-(4-fluorophenyl)-pyrido[3,2-d]pyrimidine] gave a pIC50 of 6.22. Work on CN(C)C(=O)N1CCN(c2nc(N)nc3ccc(-c4ccc(F)cc4)nc23)CC1 [Example 464, 2-amino-4-[4-(dimethylcarbamoyl)piperazin-1-yl]-6-(4-fluorophenyl)-pyrido[3,2-d]pyrimidine] yielded a pIC50 of 6.10. Compound CC(C)N(C(=O)N1CCN(c2nc(N)nc3ccc(-c4ccc(F)cc4)nc23)CC1)C(C)C [Example 465, 2-amino-4-[4-(diisopropylcarbamoyl)piperazin-1-yl]-6-(4-fluorophenyl)-pyrido[3,2-d]pyrimidine] has a pIC50 of 5.52. Nc1nc(N2CCN(C(=O)N3CCOCC3)CC2)c2nc(-c3ccc(F)cc3)ccc2n1 [Example 466, 2-amino-4-[4-(morpholinocarbonyl)piperazin-1-yl]-6-(4-fluorophenyl)-pyrido[3,2-d]pyrimidine] gave a pIC50 of 5.60. CC(C)C(C(=O)N1CCN(c2nc(N)nc3ccc(-c4ccc(F)cc4)nc23)CC1)c1ccc(Cl)cc1 (centres unmarked) [Example 467, 2-amino-4-{4-[2-(4-chlorophenyl)-3-methylbutyryl]-piperazin-1-yl}-6-(4-fluorophenyl)-pyrido[3,2-d]pyrimidine] was tested, and the pIC50 was 5.33. In the case of CC(Cl)C(=O)N1CCN(c2nc(N)nc3ccc(-c4ccc(F)cc4)nc23)CC1 (centres unmarked) [Example 468, 2-amino-4-[4-(2-chloropropionyl)piperazin-1-yl]-6-(4-fluorophenyl)-pyrido[3,2-d]pyrimidine], the pIC50 was 5.49. With Nc1nc(N2CCN(C(=O)Oc3ccc(Cl)cc3)CC2)c2nc(-c3ccc(F)cc3)ccc2n1 [Example 469, 2-amino-4-[4-(4-chlorophenoxycarbonyl)piperazin-1-yl]-6-(4-fluorophenyl)-pyrido[3,2-d]pyrimidine] the pIC50 was 6.30. For CC(C)(Oc1ccc(Cl)cc1)C(=O)N1CCN(c2nc(N)nc3ccc(-c4ccc(F)cc4)nc23)CC1 [Example 472, 2-amino-4-{4-[2-(4-chlorophenoxy)-2-methylpropionyl]-piperazin-1-yl}-6-(4-fluorophenyl)-pyrido[3,2-d]pyrimidine], the pIC50 was < 5.00. Nc1nc(N2CCN(C(=O)CCOc3ccc(Cl)cc3)CC2)c2nc(-c3ccc(F)cc3)ccc2n1 [Example 473, 2-amino-4-{4-[3-(4-chlorophenoxy)propionyl]-piperazin-1-yl}-6-(4-fluorophenyl)-pyrido[3,2-d]pyrimidine] showed a pIC50 of 6.30. With CC(Oc1ccccc1)C(=O)N1CCN(c2nc(N)nc3ccc(-c4ccc(F)cc4)nc23)CC1 (centres unmarked) [Example 474, 2-amino-4-[4-(2-phenoxypropionyl)piperazin-1-yl]-6-(4-fluorophenyl)-pyrido[3,2-d]pyrimidine] the pIC50 was 6.00. For Nc1nc(N2CCN(CC(=O)OCc3ccc(Cl)cc3)CC2)c2nc(-c3ccc(F)cc3)ccc2n1 [Example 475, {4-[2-amino-6-(4-fluorophenyl)-pyrido[3,2-d]pyrimidin-4-yl]-piperazin-1-yl}-acetic acid 4-chloro-benzyl ester], the pIC50 was 5.38.

Source: US20090264415A2 (priority 2004, published 2009)
